Experimental data from US10478426B2, “Enhancer of Zeste Homolog 2 inhibitors” (GlaxoSmithKline LLC, priority 2012, dated 2019).

These compounds were tested against EZH2 within the PRC2 complex (Homo sapiens (Human), UniProt Q15910) (assay: EZH2 methyltransferase scintillation proximity assay (SPA) with PRC2 complex). Conditions: 3H-SAM methyl transfer to Histone H3 of HeLa mononucleosomes; 30 min preincubation, 1 hour reaction.
Format: biochemical
Method: Compounds contained herein were evaluated for their ability to inhibit the methyltransferase activity of EZH2 within the PRC2 complex. Human PRC2 complex was prepared by co-expressing each of the 5 member proteins (FLAG-EZH2, EED, SUZ12, RbAp48, AEBP2) in Sf9 cells followed by co-purification. Enzyme activity was measured in a scintillation proximity assay (SPA) where a tritiated methyl group is transferred from 3H-SAM to a lysine residue on Histone H3 of a mononucleosome, purified from HeLa cells. Mononucleosomes were captured on SPA beads and the resulting signal is read on a ViewLux plate reader.
Part A. Compound Preparation
• 1. Prepare 10 mM stock of compounds from solid in 100% DMSO. • 2. Set up an 11-point serial dilution (1:3 dilution, top concentration 10 mM) in 100% DMSO for each test compound in a 384 well plate leaving columns 6 and 18 for DMSO controls. • 3. Dispense 100 nL of compound from the dilution plate into reaction plates (Grenier Bio-One, 384-well, Cat #784075). Part B. Reagent Preparation Prepare the Following Solutions: • 1. 50 mM Tris-HCl, pH 8: Per 1 L of base buffer, combine 1 M Tris-HCl, pH 8 (50 mL) and distilled water (950 mL). • 2. 1× Assay Buffer: Per 10 mL of 1× Assay Buffer, combine 50 mM Tris-HCl, pH 8 (9958 uL), 1 M MgCl2 (20 uL), 2 M DTT (20 uL), and 10% Tween-20 (2 uL) to provide a final concentration of 50 mM Tris-HCl, pH 8, 2 mM MgCl2, 4 mM DTT, 0.002% Tween-20. • 3. 2× Enzyme Solution: Per 10 mL of 2× Enzyme Solution, combine 1× Assay Buffer and PRC2 complex to provide a final enzyme concentration of 10 nM. • 4. SPA Bead Suspension: Per 1 mL of SPA Bead Suspension, combine PS-PEI coated LEADSeeker beads (40 mg) and ddH2O (1 mL) to provide a final concentration of 40 mg/mL. • 5. 2× Substrate Solution: Per 10 mL of 2× Substrate Solution, combine 1× Assay Buffer (9728.55 uL), 800 ug/mL mononucleosomes (125 uL), 1 mM cold SAM (4 uL), and 7.02 uM 3H-SAM (142.45 uL; 0.55 mCi/mL) to provide a final concentration of 5 ug/mL nucleosomes, 0.2 uM cold SAM, and 0.05 uM 3H-SAM. • 6. 2.67× Quench/Bead Mixture: Per 10 mL of 2.67× Quench/Bead Mixture, combine ddH2O (9358 uL), 10 mM cold SAM (267 uL), 40 mg/mL Bead Suspension (375 uL) to provide a final concentration of 100 uM cold SAM and 0.5 mg/mL SPA beads. Part C. Assay Reaction in 384-Well Grenier Bio-One Plates Compound Addition • 1. Dispense 100 nL/well of 100× Compound to test wells (as noted above). • 2. Dispense 100 nL/well of 100% DMSO to columns 6 & 18 for high and low controls, respectively. Assay • 1. Dispense 5 uL/well of 1× Assay Buffer to column 18 (low control reactions). • 2. Dispense 5 uL/well of 2× Enzyme Solution to columns 1-17, 19-24. • 3. Spin assay plates for ˜1 minute at 500 rpm. • 4. Stack the assay plates, covering the top plate. • 5. Incubate the compound/DMSO with the enzyme for 30 minutes at room temperature. • 6. Dispense 5 uL/well of 2× Substrate Solution to columns 1-24. • 7. Spin assay plates for ˜1 minute at 500 rpm. • 8. Stack the assay plates, covering the top plate. • 9. Incubate the assay plates at room temperature for 1 hour. Quench/Bead Addition • 1. Dispense 5 uL/well of the 3× Quench/Bead Mixture to columns 1-24. • 2. Seal the top of each assay plate with adhesive TopSeal. • 3. Spin assay plates for ˜1 minute at 500 rpm. • 4. Equilibrate the plates for >20 min. Read Plates • 1. Read the assay plates on the Viewlux Plate Reader utilizing the 613 nm emission filter with a 300 s read time. Reagent addition can be done manually or with automated liquid handler. • The final DMSO concentration in this assay is 1%. • The positive control is in column 6; negative control is in column 18. • Final starting concentration of compounds is 100 μM. Results
Percent inhibition was calculated relative to the DMSO control for each compound concentration and the resulting values were fit using standard IC50 fitting parameters within the ABASE data fitting software package.

Sequence of EZH2 within the PRC2 complex (Q15910 whole entry): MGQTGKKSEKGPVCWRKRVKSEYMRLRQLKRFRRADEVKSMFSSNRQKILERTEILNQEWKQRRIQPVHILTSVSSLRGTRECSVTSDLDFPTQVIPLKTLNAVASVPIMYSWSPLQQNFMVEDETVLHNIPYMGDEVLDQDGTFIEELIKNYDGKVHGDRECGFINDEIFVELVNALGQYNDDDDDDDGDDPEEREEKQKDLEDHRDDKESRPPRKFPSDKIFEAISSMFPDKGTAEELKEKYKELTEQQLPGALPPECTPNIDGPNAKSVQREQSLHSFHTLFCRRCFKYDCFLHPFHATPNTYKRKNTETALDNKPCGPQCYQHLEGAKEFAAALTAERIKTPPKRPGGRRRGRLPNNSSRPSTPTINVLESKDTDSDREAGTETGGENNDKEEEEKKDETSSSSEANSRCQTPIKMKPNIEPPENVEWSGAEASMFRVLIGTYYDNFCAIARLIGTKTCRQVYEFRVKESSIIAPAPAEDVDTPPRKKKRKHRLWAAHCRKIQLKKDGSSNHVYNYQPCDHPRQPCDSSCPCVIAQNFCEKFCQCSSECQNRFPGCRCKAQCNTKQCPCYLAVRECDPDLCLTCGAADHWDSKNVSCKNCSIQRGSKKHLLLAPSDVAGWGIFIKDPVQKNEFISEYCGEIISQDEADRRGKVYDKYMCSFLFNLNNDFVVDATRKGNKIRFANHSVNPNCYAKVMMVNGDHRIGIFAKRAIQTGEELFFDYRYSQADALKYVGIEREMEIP
Sequence of EZH2 within the PRC2 complex (O75530 whole entry partner): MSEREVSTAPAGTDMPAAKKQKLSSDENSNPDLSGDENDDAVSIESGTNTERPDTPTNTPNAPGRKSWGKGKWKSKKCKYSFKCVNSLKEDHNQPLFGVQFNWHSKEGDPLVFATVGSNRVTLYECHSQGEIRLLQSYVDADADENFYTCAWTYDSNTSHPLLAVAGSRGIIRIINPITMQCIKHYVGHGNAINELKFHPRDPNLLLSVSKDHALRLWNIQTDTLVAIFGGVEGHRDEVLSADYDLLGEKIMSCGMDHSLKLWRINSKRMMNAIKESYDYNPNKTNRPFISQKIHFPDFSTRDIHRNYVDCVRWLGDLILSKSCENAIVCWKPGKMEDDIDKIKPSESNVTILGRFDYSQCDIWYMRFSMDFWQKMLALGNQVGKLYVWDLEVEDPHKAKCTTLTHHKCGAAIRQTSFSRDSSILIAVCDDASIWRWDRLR
Sequence of EZH2 within the PRC2 complex (Q15022 whole entry partner): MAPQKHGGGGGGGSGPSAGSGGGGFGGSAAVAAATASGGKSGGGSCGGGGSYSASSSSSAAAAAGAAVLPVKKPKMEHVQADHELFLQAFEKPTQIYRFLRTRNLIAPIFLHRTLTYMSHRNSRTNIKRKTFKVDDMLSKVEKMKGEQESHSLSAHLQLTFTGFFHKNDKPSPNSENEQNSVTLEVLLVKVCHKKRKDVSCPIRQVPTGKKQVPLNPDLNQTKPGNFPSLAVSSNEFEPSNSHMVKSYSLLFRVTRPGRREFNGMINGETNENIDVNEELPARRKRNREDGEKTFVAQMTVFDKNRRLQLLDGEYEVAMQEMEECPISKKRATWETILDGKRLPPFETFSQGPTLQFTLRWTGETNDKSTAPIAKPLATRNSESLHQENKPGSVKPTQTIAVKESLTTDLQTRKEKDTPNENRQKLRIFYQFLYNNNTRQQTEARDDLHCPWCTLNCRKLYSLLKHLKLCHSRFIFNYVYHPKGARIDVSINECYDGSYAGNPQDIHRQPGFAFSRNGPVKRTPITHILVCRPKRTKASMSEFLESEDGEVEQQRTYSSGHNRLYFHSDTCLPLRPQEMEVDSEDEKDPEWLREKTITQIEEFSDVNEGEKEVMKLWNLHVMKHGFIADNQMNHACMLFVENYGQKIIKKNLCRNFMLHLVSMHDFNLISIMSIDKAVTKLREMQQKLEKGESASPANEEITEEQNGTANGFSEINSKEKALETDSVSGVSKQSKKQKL
Sequence of EZH2 within the PRC2 complex (Q09028 whole entry partner): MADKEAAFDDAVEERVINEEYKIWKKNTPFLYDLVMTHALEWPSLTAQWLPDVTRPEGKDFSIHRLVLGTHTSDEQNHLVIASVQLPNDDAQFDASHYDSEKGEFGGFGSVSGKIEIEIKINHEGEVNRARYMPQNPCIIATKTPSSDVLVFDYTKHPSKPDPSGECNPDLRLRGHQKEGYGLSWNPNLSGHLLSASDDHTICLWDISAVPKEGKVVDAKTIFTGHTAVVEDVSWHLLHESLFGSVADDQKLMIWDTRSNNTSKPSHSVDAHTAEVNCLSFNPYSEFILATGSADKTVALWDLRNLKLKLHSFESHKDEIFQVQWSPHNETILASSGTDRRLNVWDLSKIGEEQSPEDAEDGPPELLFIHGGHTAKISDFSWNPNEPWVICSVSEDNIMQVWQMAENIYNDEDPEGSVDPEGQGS
Sequence of EZH2 within the PRC2 complex (Q6ZN18 whole entry partner): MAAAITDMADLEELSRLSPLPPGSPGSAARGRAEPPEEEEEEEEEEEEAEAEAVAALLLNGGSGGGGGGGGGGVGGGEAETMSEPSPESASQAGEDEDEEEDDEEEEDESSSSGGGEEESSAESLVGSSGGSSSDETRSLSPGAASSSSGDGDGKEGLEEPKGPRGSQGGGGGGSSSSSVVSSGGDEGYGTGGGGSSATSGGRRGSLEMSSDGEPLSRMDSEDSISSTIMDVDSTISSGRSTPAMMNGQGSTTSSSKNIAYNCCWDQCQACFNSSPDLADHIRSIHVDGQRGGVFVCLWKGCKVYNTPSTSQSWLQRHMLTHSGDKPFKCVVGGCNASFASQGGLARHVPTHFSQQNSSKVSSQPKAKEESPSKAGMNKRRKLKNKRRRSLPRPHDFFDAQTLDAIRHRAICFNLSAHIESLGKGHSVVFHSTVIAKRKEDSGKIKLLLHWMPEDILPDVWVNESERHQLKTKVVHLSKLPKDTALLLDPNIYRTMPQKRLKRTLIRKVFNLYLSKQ

| Structure (SMILES) | IC50 |
| --- | --- |
| CCCc1cc(C)[nH]c(=O)c1CNC(=O)c1cc(Br)cc(NC(C)C)c1C [Example 1, 5-Bromo-2-methyl-3-[(1-methylethyl)amino]-N-[(6-methyl-2-oxo-4-propyl-1,2-dihydro-3-pyridinyl)methyl]benzamide] | 501 nM |
| CCC(C)Oc1cc(C#N)cc(C(=O)NCc2c(C)cc(C)[nH]c2=O)c1C (centres unmarked) [Example 44, 3-(sec-Butoxy)-5-cyano-N-((4,6-dimethyl-2-oxo-1,2-dihydropyridin-3-yl)methyl)-2-methylbenzamide] | 316 nM |
| CCCc1cc(C)[nH]c(=O)c1CNC(=O)c1cc(-c2ccc(N3CCN(C)CC3)nc2)cc(NC(C)C)c1C [Example 2, 2-Methyl-3-[(1-methylethyl)amino]-N-[(6-methyl-2-oxo-4-propyl-1,2-dihydro-3-pyridinyl)methyl]-5-[6-(4-methyl-1-piperazinyl)-3-pyridinyl]benzamide] | 40 nM |
| CCC(C)Oc1cc(Br)cc(C(=O)NCc2c(C)cc(C)[nH]c2=O)c1C (centres unmarked) [Example 20, 5-Bromo-3-(sec-butoxy)-N-((4,6-dimethyl-2-oxo-1,2-dihydropyridin-3-yl)methyl)-2-methylbenzamide] | 13 nM |

The next lines start with the values.

| IC50 | Structure (SMILES) |
| --- | --- |
| 50 nM | Cc1cc(Cc2ccccc2)c(CNC(=O)c2cc(Br)cc(NC(C)C)c2C)c(=O)[nH]1 [Example 4, 5-Bromo-2-methyl-3-[(1-methylethyl)amino]-N-{[6-methyl-2-oxo-4-(phenylmethyl)-1,2-dihydro-3-pyridinyl]methyl}benzamide] |
| 2500 nM | COc1cccc(C(=O)NCc2c(C)cc(C)[nH]c2=O)c1C [Example 36, N-((4,6-dimethyl-2-oxo-1,2-dihydropyridin-3-yl)methyl)-3-methoxy-2-methylbenzamide] |
| 250 nM | Cc1cc(C)c(CNC(=O)c2cc(Cl)cc(OC(C)C)c2Cl)c(=O)[nH]1 [Example 24, 2,5-Dichloro-N-[(4,6-dimethyl-2-oxo-1,2-dihydro-3-pyridinyl)methyl]-3-[(1-methylethyl)oxy]benzamide] |
| 1000 nM | Cc1cc(C)c(CNC(=O)c2cc(Cl)cc(NC(C)CO)c2C)c(=O)[nH]1 (centres unmarked) [Example 26, 5—Chloro-N-[(4,6-dimethyl-2-oxo-1,2-dihydro-3-pyridinyl)methyl]-3-[(2-hydroxy-1-methylethyl)amino]-2-methylbenzamide] |
